What all share (assay type): in vivo, rat
The subject of assay [1] is doxorubicin-induced heart failure. The assay is described as follows: Cardiac radical scavenging activity (ABTS-radical decolorization). The settings on record: doxorubicin rats; prophylactic or therapeutic administration of SUL-150. How it is done:
(§1) The SUL-150 solution was sprayed homogeneously over standard food pellets (1.25 kg). […] Food pellets were freshly prepared weekly. With the approximation of 200 mg·kg^−1 SUL-150 in the food pellets and a daily dietary intake of 25 gram for a 350 gram rat, daily dosing of SUL-150 approximates 5 mg·day^−1. Male outbred Wistar rats of 250-300 grams (10-12 weeks old) were kept on a 12 h light/dark cycle and received a standard diet with distilled water ad libitum. Thirty rats were administered with doxorubicin (2 mg·kg^−1) weekly via intraperitoneal injection for 9 consecutive weeks and were left either untreated (standard chow diet, 10 rats), or received a diet supplemented with SUL-150 as prophylaxis (prior to the 1st doxorubicin administration, 10 rats) or therapy (starting after the 6th doxorubicin administration, 10 rats). Sham control rats (8 rats) were administered with saline weekly via intraperitoneal injection for 9 consecutive weeks and received a standard diet. All rats were subjected to cardiac function assessment 12 weeks after the first doxorubicin administration. Cardiac tissue samples were homogenized in ddH2O using a TissueRuptor II (Qiagen, Hilden, Germany) followed by sonication at 20 kHz for 3×1 min (Sonopuls 2000, Bandelin, Berlin, Germany) and centrifugation at 14000 g to pellet insoluble proteins. […]

The test system is the same in assay [2]. The assay is described as follows: Cardiac ATP/ADP ratio (HPLC). The following applies: doxorubicin rats; prophylactic or therapeutic administration of SUL-150. Here is the method: (§2) SUL-150 (250 mg) was dissolved in 100% EtOH (1.02 ml) and further diluted in distilled water (68.7 ml) to obtain a clear 10 mM solution. The SUL-150 solution was sprayed homogeneously over standard food pellets (1.25 kg). Food pellets were air-dried overnight. Food pellets were freshly prepared weekly. With the approximation of 200 mg·kg^−1 SUL-150 in the food pellets and a daily dietary intake of 25 gram for a 350 gram rat, daily dosing of SUL-150 approximates 5 mg·day^−1.
(§3) Male outbred Wistar rats of 250-300 grams (10-12 weeks old) were kept on a 12 h light/dark cycle and received a standard diet with distilled water ad libitum. Thirty rats were administered with doxorubicin (2 mg·kg^−1) weekly via intraperitoneal injection for 9 consecutive weeks and were left either untreated (standard chow diet, 10 rats), or received a diet supplemented with SUL-150 as prophylaxis (prior to the 1st doxorubicin administration, 10 rats) or therapy (starting after the 6th doxorubicin administration, 10 rats). […]
Cardiac tissue samples were homogenized in Tris-saturated phenol (pH 7.4) using a TissueRuptor II (Qiagen, Hilden, Germany) to extract adenosines and separated over chloroform:water (1:1 v/v) by centrifugation. […] The eluted nucleotides were detected at a wavelength of 260 nm. Nucleotide concentration of the eluate was calculated using calibration curves for each standard nucleotide peak area. […]

The test system is the same in assay [3]. Briefly: Cardiac mitochondrial (mtDNA) copy number. The settings on record: doxorubicin rats; administration of SUL-150. How it is done: as §2
as §3, with “rats). Sham control rats (8 rats) were administered with saline weekly via intraperitoneal injection for 9 consecutive weeks and received a standard diet.” for “rats).”
Cardiac tissue samples were homogenized in lysis buffer (100 mM NaCl, 10 mM EDTA, 0.5% SDS in 20 mM Tris-HCl, pH 7.4) containing 50 U·ml^−1 RNase I and 100 U·ml^−1 proteinase K (both ThermoFisher, Walthham, MA). […] MtDNA copy number was calculated as: […]

For assay [4] the test system is unchanged. The assay is described as follows: Cardiac oxidative stress: lipid peroxidation (TBARS). The settings on record: doxorubicin rats; SUL-150 in prophylaxis or therapeutic regime. How it is done: as §1

Structures are written as SMILES.

Consider `Cc1c(C)c2c(c(C)c1O)CC[C@](C)(C(=O)N1CCNCC1)O2` [SUL-150, (R)-(6-hydroxy-2,5,7,8-tetramethylchroman-2-yl)(piperazin-1-yl)methanone], for which the “Cardiac radical scavenging activity, FIG. 5B” value in assay [1] is on record as “remained unaltered”. Also, the “Doxorubicin-induced reduction of cardiac ATP content (normalized for ADP), FIG. 6A” value in assay [2] is reported as “mitigated”. Besides, the “Doxorubicin-induced reduction of cardiac mtDNA copy number, FIG. 6B” value in assay [3] was “precluded”. The “Cardiac lipid peroxidation products (TBARS), FIG. 5A” value in assay [4] is reported as “mitigates cardiac lipid peroxidation”.
